Where only a bound is given, the exact number is not on record here.

Holding throughout (format): cell-based
Assay [1] relates to transcription factor TEAD. The assay can be described thus: Activity inhibition test of transcription factor TEAD (ONE-Glo luciferase, TEAD reporter-MCF7 cell line). The following applies: Homo sapiens; TEAD Reporter-MCF7 cells, 24 hours treatment, luciferase luminescence. How it is done: The transcription factor TEAD activity of the compounds prepared in Examples was measured by the ONE-Glo™ Luciferase assay (Promega, Catalog #E6110) method using the Hippo Pathway TEAD reporter-MCF7 recombinant cell line (BPS Bioscience, Catalog #60618).
Specifically, the TEAD Reporter-MCF7 cell line contains the firefly luciferase gene whose expression is regulated under the control of TEAD response elements in the MCF7, which is a human breast cancer cell line. In the cell line, a non-phosphorylated YAP/TAZ exists in the nucleus in a non-stressed condition, which continuously induces expression of the luciferase reporter.
TEAD Reporter-MCF7 cells were prepared in 100 μL of cell culture medium (MEM medium, 10% FBS, 1% P/S, 400 μg/mL Geneticin, 1% […], 1 mM NA pyruvate, 10 μg/mL Insulin) in a white clear bottom 96-well microplate. The prepared plate was incubated in a 5% CO2 incubator at 37° C. for 24 hours, and then the previously prepared compounds of Examples were finally treated at concentrations of 0.001, 0.01, 0.1, 1, and 10 µM, which were repeated three times for all treatment solutions. The plates treated with the compounds of Examples were incubated in a 5% CO2 incubator at 37° C. for 24 hours. 100 μL/well of the substrate aqueous solution containing luciferin was added to a white clear-bottom 96 well microplate, thereby initiating an enzyme reaction. The reaction was performed at room temperature for 5 minutes, and the luminescence (integration time 1000 ms) was measured using a Flexstation3 multi-mode microplate reader. In accordance with the instructions for the ONE-Glo™ Luciferase Assay, the luciferase enzyme activity, which represents the activity of the transcription factor TEAD, was measured by a chemiluminescence method, and the inhibitory activity of the compound according to the present invention was calculated. The results of each compound were analyzed using Microsoft Excel, and the IC50 values were calculated by GraphPad Prism software.

Assay [2] deals with NCI-H226 human mesothelioma cell line. The assay can be described thus: Cell growth inhibition test (CellTiter-Glo), NCI-H226. The following applies: NCI-H226 cells. The protocol: (§1) The cell growth for the compounds prepared in Examples was measured by CellTiter-Glo® Luminescent Cell Viability (Promega, Catalog #G7571) method using NCI-H226 (addexbio), NCI-H28 (Korea Cell Line Bank) and MSTO-211H (elabscience) human mesothelioma cell lines. This evaluation method is a method in which when luciferase enzyme is activated by ATP flowing out from living cells, it reacts with a luciferin substrate, and the enzyme activity at this time is measured to confirm cell viability.
(§2) Specifically, NCI-H226, NCI-H28, and MSTO-211H cells were prepared in 100 μL of cell culture medium (RPMI medium, 10% FBS, 1% P/S, 4.5 g/L D-Glucose, 2.383 g/L HEPES Buffer, L-Glutamine, 1.5 g/L Sodium Bicarbonate, 110 mg/L Sodium pyruvate) in a white clear bottom 96-well microplate. The prepared plate was incubated in a 5% CO2 incubator at 37° C. for 24 hours, and then the previously prepared compounds of Examples were finally treated at concentrations of 0.001, 0.01, 0.1, 1, and 10 μM, which was repeated three times for all treatment solutions. The plates treated with the compounds of Examples were incubated in a 5% CO2 incubator at 37° C. 100 μL/well of the substrate aqueous solution containing luciferin was added to a white clear-bottom 96 well microplate, thereby initiating an enzyme reaction. The reaction was performed at room temperature in the dark for 10 minutes, and the luminescence was measured using a Flexstation3 multi-mode microplate reader. In accordance with the instructions for the CellTiter-Glo™ Luminescednt Cell Viability, the luciferase enzyme activity, which represents the amount of ATP, was measured by a chemiluminescence method, and the inhibitory activity of the compounds according to the present invention was calculated. The results of each compound were analyzed using Microsoft Excel, and the IC50 values were calculated using GraphPad Prism software.
A general note: In ATP-based viability assays light output follows the ATP content of the culture.

The subject of assay [3] is MSTO-211H human mesothelioma cell line. The assay is described as follows: Cell growth inhibition test (CellTiter-Glo), MSTO-211H. The following applies: MSTO-211H cells. How it is done: as §1, §2
In assay [4] the test system is NCI-H28 human mesothelioma cell line. The assay is described as follows: Cell growth inhibition test (CellTiter-Glo), NCI-H28. The note with it: NCI-H28 cells. How it is done: as §1, §2

Usually IC50 stands for the point on the concentration scale where inhibition reaches its midpoint. A higher IC50 goes with a need for much substance. Turning to `C=CC(=O)Nc1ccc(Nc2ccc(C(F)(F)F)cn2)c(-c2ccccn2)c1` [Example 4, N-(3-(pyridin-2-yl)-4-((5-(trifluoromethyl)pyridin-2-yl)amino)phenyl)acrylamide], the half-inhibitory concentration (IC50) in assay [1] is 17.8 nM; in assay [2] it was 6 nM; in assay [3] it was 130 nM; in assay [4], 3310 nM.

In the case of `C=CC(=O)Nc1ccc(Nc2ccc(C(F)(F)F)cn2)c(-c2cn(C)cn2)c1` [Example 6, N-(3-(1-methyl-1H-imidazol-4-yl)-4-((5-(trifluoromethyl)pyridin-2-yl)amino)phenyl)acrylamide], the IC50 in assay [1] worked out at 10 nM; in assay [2], 3 nM; in assay [3], 221 nM; in assay [4] it was 1380 nM.

For the molecule `C=CC(=O)Nc1ccc(Nc2ccc(C(F)(F)F)cn2)c(-c2ccncn2)c1` [Example 15, N-(3-(pyrimidin-4-yl)-4-((5-(trifluoromethyl)pyridin-2-yl)amino)phenyl)acrylamide], the half-maximal inhibitory concentration (IC50) in assay [1] came to 42.8 nM; in assay [2] it was 71.8 nM; in assay [3], 552 nM; in assay [4], 1570 nM.

As to `C=CC(=O)Nc1ccc(Nc2ncc(C(F)(F)F)cc2F)c(-c2ccccn2)c1` [Example 21, N-(4-((3-fluoro-5-(trifluoromethyl)pyridin-2-yl)amino)-3-(pyridin-2-yl)phenyl)acrylamide], the IC50 was 11.5 nM in assay [1], 9 nM in assay [2], 3270 nM in assay [3] and 2680 nM in assay [4].

For `C=CC(=O)Nc1cc(F)c(Nc2ccc(C(F)(F)F)cn2)c(-c2ccccn2)c1` [Example 29, N-(3-fluoro-5-(pyridin-2-yl)-4-((5-(trifluoromethyl)pyridin-2-yl)amino)phenyl)acrylamide], the half-inhibitory concentration (IC50) worked out at 21.5 nM in assay [1], 20 nM in assay [2], 196 nM in assay [3] and 2550 nM in assay [4].

For `C=CC(=O)Nc1ccc(Nc2cc(C3CC3)c(Cl)cn2)c(-c2ccccn2)c1` [Example 30, N-(4-((5-chloro-4-cyclopropylpyridin-2-yl)amino)-3-(pyridin-2-yl)phenyl)acrylamide], the half-maximal inhibitory concentration (IC50) in assay [1] amounted to 31.6 nM; in assay [2] it was 10 nM; in assay [3], 2210 nM; in assay [4], 8790 nM.

Take `C=CC(=O)Nc1ccc(Nc2cc(C(F)(F)F)ccn2)c(-c2cn(C)cn2)c1` [Example 31, N-(3-(1-methyl-1H-imidazol-4-yl)-4-((4-(trifluoromethyl)pyridin-2-yl)amino)phenyl)acrylamide]: the results for the half-inhibitory concentration (IC50) in assay [1], in assay [3] and in assay [4] were 314 nM, greater than 10000 nM and 3110 nM, respectively.

Take `C=CC(=O)Nc1ccc(Nc2ccc(C(F)(F)F)cc2)c(-c2cn(C)cn2)c1` [Example 35, N-(3-(1-methyl-1H-imidazol-4-yl)-4-((4-(trifluoromethyl)phenyl)amino)phenyl)acrylamide]: the IC50 in assay [1] came to 5.3 nM; in assay [2], 3 nM; in assay [3], 105 nM; in assay [4], 3020 nM.

In the case of `C=CC(=O)Nc1ccc(Nc2ncc(C(F)(F)F)cc2F)c(-c2cn(C)cn2)c1` [Example 36, N-(4-((3-fluoro-5-(trifluoromethyl)pyridin-2-yl)amino)-3-(1-methyl-1H-imidazol-4-yl)phenyl)acrylamide], the IC50 was 27 nM in assay [1], 12 nM in assay [2], greater than 10000 nM in assay [3] and greater than 10000 nM in assay [4].

In the case of `C=CC(=O)Nc1ccc(Nc2cc(Cl)c(C(F)(F)F)cn2)c(-c2ccn(C)n2)c1` [Example 37, N-(4-((4-chloro-5-(trifluoromethyl)pyridin-2-yl)amino)-3-(1-methyl-1H-pyrazol-3-yl)phenyl)acrylamide], the half-maximal inhibitory concentration (IC50) turned out to be 4.5 nM in assay [1], 13 nM in assay [2], 3750 nM in assay [3] and 1100 nM in assay [4].

Take `C=CC(=O)Nc1cnc(Nc2ccc(C(F)(F)F)cn2)c(-c2ccccn2)c1` [Example 39, N-(2′-((5-(trifluoromethyl)pyridin-2-yl)amino)-[2,3′-bipyridin]-5′-yl)acrylamide]: the half-inhibitory concentration (IC50) in assay [1] is 40.3 nM; in assay [2], 15.8 nM; in assay [3], 194 nM; in assay [4], 3280 nM.

Consider `C=CC(=O)Nc1ccc(Nc2ccc(C(F)(F)F)c(F)c2)c(-c2cn(C)cn2)c1` [Example 40, N-(4-((3-fluoro-4-(trifluoromethyl)phenyl)amino)-3-(1-methyl-1H-imidazol-4-yl)phenyl)acrylamide], for which the IC50 was found to be 15 nM in assay [1], 6.6 nM in assay [2], 1130 nM in assay [3] and 5540 nM in assay [4].

Take `C=CC(=O)Nc1ccc(Nc2ncc(C(F)(F)F)cc2Cl)c(-c2ccn(C)n2)c1` [Example 53, N-(4-((3-chloro-5-(trifluoromethyl)pyridin-2-yl)amino)-3-(1-methyl-1H-pyrazol-3-yl)phenyl)acrylamide]: the IC50 in assay [1] is 30.7 nM; in assay [2], 62.8 nM; in assay [3], 8240 nM; in assay [4] it was 1670 nM.

Turning to `C=CC(=O)Nc1ccc(Nc2cc(Cl)c(Cl)cn2)c(-c2ccn(C)n2)c1` [Example 55, N-(4-((4,5-dichloropyridin-2-yl)amino)-3-(1-methyl-1H-pyrazol-3-yl)phenyl)acrylamide], the concentration for half-maximal inhibition (IC50) came to 12.8 nM in assay [1], 65 nM in assay [2], 167 nM in assay [3] and 1250 nM in assay [4].

Source of the values: US20250074889A1, “Novel Aminobenzene Derivative Having Cancer Cell Growth Inhibitory Effect, and Preventive or Therapeutic Pharmaceutical Composition Containing Same as Active Ingredient” (Daewoong Pharmaceutical Co., Ltd., priority 2022, published 2025).
